Measured values reported in US20220348590A1, “CYCLOOXYGENASE-2 INHIBITORS AND USES THEREOF” (The Board Institute, Inc., priority 2019, published 2022).
In brackets after ≈: the same amount, converted by molar mass. Read-outs that look alike come from different tables or passages of the source.

Columns and labels:
[1] = Human Plasma Protein Stability (% Remaining); format: in vitro ADME; conditions: average
[2] = rat plasma protein binding (PPB) assay; format: in vitro ADME; conditions: average, read-out: Rat Plasma Protein Binding % Bound Avg (converted)
In short: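 Ligands are incubated in vitro with mouse, rat or human plasma, or with mouse brain, and the fraction remaining free is determined.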

[3] = Human Microsome Stability; format: in vitro ADME; conditions: human microsomes
[4] = human plasma protein binding (PPB) assay; format: in vitro ADME; conditions: average, read-out: Human Plasma Protein Binding % Bound Avg (converted)
Method: We have adapted a previously reported cyclooxygenase enzymatic assay utilizing LCMS quantification of PGE2 as the product of COX-1 and COX2 catalyzed conversion of arachidonic acid to evaluate the binding properties of newly synthesized ligands [Cao, 2011]. These optimized and miniaturized (384-well plates) LCMS-based COX-1 and COX2 enzymatic assays enabled us to quickly evaluate newly synthesized ligands for COX2 binding affinity and selectivity vs COX-1. Using a shorter ligand-enzyme incubation time in the LCMS assay (2 minutes vs 10 minutes) also permitted us to prioritize ligands with faster binding kinetics. Considering the relatively slow on-rate kinetics of known coxibs, due to their 3-step binding mechanism [Marnett, 2009], we believe that optimizing this critical parameter will be key to the successful development of a COX2 PET tracer. Using these enzymatic assays, we have evaluated>200 newly synthesized ligands against COX2 and >20 ligands against COX-1. Another critical property necessary for a good PET radiotracer is to have low non-specific binding (NSB) to increase the free fraction and maximize the signal to noise ratio. This property can be evaluated using in-vitro protein binding assays, and we have now evaluated>50 newly synthesized ligands in mouse, rat and human plasma protein binding (PPB) assays as well as >15 ligands in a mouse brain protein binding (BPB) assay.

PBS Solubility (no DMSO) = format: physicochemical; conditions: aqueous buffer, thermodynamic from solid, average
[5] = biological target: T1, human recombinant COX2 (hCOX2) (UniProt P35354); assay: LCMS-based COX2 enzymatic inhibition assay (PGE2 quantification); format: biochemical; set-up: COX2 2 minutes pge2/pge2d4 area ratio Avg; other: 2 minutes; readout pge2/pge2d4 area ratio; average; COX2 2 minutes pge2/pge2d4 area ratio Avg; LLE; average LLE; COX2 2 minutes pge2 area (counts) Avg; readout pge2 area (counts); other: 2 min; "ovine COX2 (oCOX2), human recombinant COX2 (hCOX2)"; conditions: for COX2 2 minutes pge2/pge2d4 area ratio Avg. LLE / COX2 2 minutes pge2 area (counts) Avg. LLE / COX2 10 minutes pge2 area (counts) Avg. LLE / COX2 30 minutes pge2 area (counts) Avg. LLE: average LLE; for IC50: average
T1 sequence (P35354 1-604): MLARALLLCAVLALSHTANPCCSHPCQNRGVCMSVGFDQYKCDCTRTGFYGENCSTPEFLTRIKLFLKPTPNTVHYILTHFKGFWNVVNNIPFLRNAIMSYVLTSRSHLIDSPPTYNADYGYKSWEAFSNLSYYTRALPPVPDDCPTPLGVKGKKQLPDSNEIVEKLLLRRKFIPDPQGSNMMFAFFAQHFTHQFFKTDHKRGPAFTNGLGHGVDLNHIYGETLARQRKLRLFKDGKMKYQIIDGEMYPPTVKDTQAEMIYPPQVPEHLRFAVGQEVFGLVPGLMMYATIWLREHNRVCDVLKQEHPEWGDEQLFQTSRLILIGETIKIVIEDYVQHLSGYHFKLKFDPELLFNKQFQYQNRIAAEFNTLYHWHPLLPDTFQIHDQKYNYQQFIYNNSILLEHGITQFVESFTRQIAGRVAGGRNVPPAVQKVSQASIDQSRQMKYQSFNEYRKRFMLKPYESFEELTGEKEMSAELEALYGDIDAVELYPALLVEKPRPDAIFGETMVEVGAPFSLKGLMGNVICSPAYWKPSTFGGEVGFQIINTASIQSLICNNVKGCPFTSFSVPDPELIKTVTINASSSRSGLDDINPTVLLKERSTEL
In short: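 Ovine COX-1 (0.1 μg) or human recombinant COX2 (0.2 μg) in 100 mM Tris.HCl pH 8.0 with hematin and epinephrine, preincubated with inhibitor 10 min at 37 °C. Reaction with 5 μM arachidonic acid stopped after 2 min with HCl; PGE2 quantified by LC-MS-MS. IC50 from 12 concentrations in triplicate.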

[6] = 2 minutes, readout pge2/pge2d4 area ratio
[7] = 2 minutes, readout pge2/pge2d4 area ratio, read-out: COX2 2 minutes pge2/pge2d4 area ratio Avg. IC50
[8] = 2 minutes, readout pge2 area (counts)
[9] = 2 minutes, readout pge2 area (counts), read-out: COX2 2 minutes pge2 area (counts) Avg. IC50
[10] = 10 minutes, readout pge2 area (counts)
[11] = 10 minutes, readout pge2 area (counts), read-out: COX2 10 minutes pge2 area (counts) Avg. IC50
[12] = 30 minutes, readout pge2 area (counts)
[13] = 30 minutes, readout pge2 area (counts), read-out: COX2 30 minutes pge2 area (counts) Avg. IC50

Structure (SMILES)	Human Plasma Protein Stability % Remaining Avg [1]	fraction unbound [2]	Human Microsome Stability % Remaining Avg [3]	fraction unbound [4]	solubility (PBS Solubility (no DMSO))	COX2 2 minutes pge2/pge2d4 area ratio Avg. LLE [5, 6]	IC50 [5, 7]	COX2 2 minutes pge2 area (counts) Avg. LLE [5, 8]	IC50 [5, 9]	COX2 10 minutes pge2 area (counts) Avg. LLE [5, 10]	IC50 [5, 11]	COX2 30 minutes pge2 area (counts) Avg. LLE [5, 12]	IC50 [5, 13]
CS(=O)(=O)c1ccc(-c2cccc(OCc3cccs3)n2)cc1 [Compound 1, 2-(4-methanesulfonylphenyl)-6-[(thiophen-2-yl)methoxy]pyridine]	94%	0.006	38%	0.002	1.1 µM (≈ 0.38 µg/mL)	4.864	3.27 nM	4.806	3.66 nM				
CS(=O)(=O)c1ccc(-c2nc(NCc3cccs3)cc3ccoc23)cc1 [Compound 2]	99%	0.009	27%	0.003	0.31 µM (≈ 0.119 µg/mL)	3.981	5.13 nM	3.975	5.45 nM				
CS(=O)(=O)c1ccc(-c2cc(F)cc(NCc3ccco3)n2)cc1 [Compound 14]	118%	0.024	21%	0.02	6.1 µM (≈ 2.11 µg/mL)	5.172	8.81 nM	5.203	9.37 nM				
CS(=O)(=O)c1ccc(-c2ccc(F)c(NCc3ccco3)n2)cc1 [Compound 15]	108%	0.02	45.5%	0.022	4.5 µM (≈ 1.56 µg/mL)	5.1257	8.91 nM	5.098	9.62 nM				
CS(=O)(=O)c1ccc(-c2cccc(OCc3ccoc3)n2)cc1 [Compound 16]	121%	0.031	24%	0.049	10 µM (≈ 3.29 µg/mL)	4.9079	9.12 nM	4.932	8.71 nM				
COc1ccc(NCc2cccs2)nc1-c1ccc(S(C)(=O)=O)cc1 [Compound 17]	95%	0.047		0.022	1.3 µM (≈ 0.487 µg/mL)	4.653	9.62 nM	4.644	9.92 nM				
CS(=O)(=O)c1ccc(-c2cncc(OCc3cccs3)n2)cc1 [Compound 19]	92.4%	0.015		0.015	5.8 µM (≈ 2.01 µg/mL)	5.643	10.2 nM	5.681	9.01 nM	6.3861	1.5 nM		
Cc1occc1CNc1cccc(-c2ccc(S(C)(=O)=O)cc2)n1 [Compound 21]	99%	0.042	36%	0.026	18 µM (≈ 6.16 µg/mL)	4.818	10.9 nM	4.716	13.9 nM				
CS(=O)(=O)c1ccc(-c2cccc(NCc3ccc(F)o3)n2)cc1 [Compound 23]	97%	0.046	11%	0.028	24 µM (≈ 8.31 µg/mL)	4.592	11.4 nM	4.619	10.7 nM				
CS(=O)(=O)c1ccc(-c2cccc(NCc3cccs3)n2)cc1 [Compound 24]	100%	0.025	18%	0.019	2.1 µM (≈ 0.723 µg/mL)		11.7 nM		10.3 nM				
COc1ncc(NCc2cccs2)nc1-c1ccc(S(C)(=O)=O)cc1 [Compound 29]	93.9%	0.019	24%	0.016	2.8 µM (≈ 1.05 µg/mL)	5.399	14.9 nM	5.474	14.5 nM				
CS(=O)(=O)c1ccc(-c2ccc(F)c(NCc3ccoc3)n2)cc1 [Compound 33]	100%	0.025	40%	0.029	0.64 µM (≈ 0.222 µg/mL)	4.757	16.4 nM	4.796	15.1 nM				
CS(=O)(=O)c1ccc(-c2cc(F)cc(NCc3ccoc3)n2)cc1 [Compound 34]	100%	0.025	48%	0.027	12 µM (≈ 4.16 µg/mL)	4.826	16.4 nM	4.752	18.3 nM				
CS(=O)(=O)c1ccc(-c2cccc(/C=C\c3ccoc3)n2)cc1 [Compound 35, 2-[(Z)-2-(furan-3-yl)ethenyl]-6-(4-methanesulfonylphenyl)pyr]	97%	0.052	19%	0.024	37 µM (≈ 12 µg/mL)	4.232	17.2 nM	4.214	17.4 nM				
COc1ncc(NCc2ccoc2)nc1-c1ccc(S(C)(=O)=O)cc1 [Compound 44]		0.044			28 µM (≈ 10.1 µg/mL)	5.722	19.6 nM	5.725	20.1 nM				
COc1cc(NCc2cccs2)nc(-c2ccc(S(C)(=O)=O)cc2)c1 [Compound 50]						4.261	22.8 nM	4.341	20 nM	4.996	5 nM	5.9869	0.416 nM
CS(=O)(=O)c1ccc(-c2cncc(NCc3cccs3)n2)cc1 [Compound 98]			23.8%			5.067	76 nM	5.168	61.6 nM	6.195	5.57 nM	6.4321	2.74 nM
